In experiment [1] the target is T1, B-RAF (Homo sapiens, UniProt P15056).
T1 construct: purchased Eurofins Pharma Discovery (KinaseProfiler); IC50 values by Reaction Biology Corp
The experiment can be described thus: Kinase profiling at 10 μM (Eurofins). In kind it is biochemical. The following applies: read-out: Inhibitory activity.

Experiment [2] has as its target T2, EPHB4 (Homo sapiens, UniProt P54760).
T2 construct: purchased Eurofins Pharma Discovery (KinaseProfiler); IC50 values by Reaction Biology Corp
Put plainly: Kinase profiling at 10 μM (Eurofins). In kind it is biochemical. The following applies: read-out: Inhibitory activity.

For experiment [3], the target named is T3, FGFR2 (Homo sapiens, UniProt P21802).
T3 construct: purchased Eurofins Pharma Discovery (KinaseProfiler); IC50 values by Reaction Biology Corp
T3 sequence (P21802 22-821): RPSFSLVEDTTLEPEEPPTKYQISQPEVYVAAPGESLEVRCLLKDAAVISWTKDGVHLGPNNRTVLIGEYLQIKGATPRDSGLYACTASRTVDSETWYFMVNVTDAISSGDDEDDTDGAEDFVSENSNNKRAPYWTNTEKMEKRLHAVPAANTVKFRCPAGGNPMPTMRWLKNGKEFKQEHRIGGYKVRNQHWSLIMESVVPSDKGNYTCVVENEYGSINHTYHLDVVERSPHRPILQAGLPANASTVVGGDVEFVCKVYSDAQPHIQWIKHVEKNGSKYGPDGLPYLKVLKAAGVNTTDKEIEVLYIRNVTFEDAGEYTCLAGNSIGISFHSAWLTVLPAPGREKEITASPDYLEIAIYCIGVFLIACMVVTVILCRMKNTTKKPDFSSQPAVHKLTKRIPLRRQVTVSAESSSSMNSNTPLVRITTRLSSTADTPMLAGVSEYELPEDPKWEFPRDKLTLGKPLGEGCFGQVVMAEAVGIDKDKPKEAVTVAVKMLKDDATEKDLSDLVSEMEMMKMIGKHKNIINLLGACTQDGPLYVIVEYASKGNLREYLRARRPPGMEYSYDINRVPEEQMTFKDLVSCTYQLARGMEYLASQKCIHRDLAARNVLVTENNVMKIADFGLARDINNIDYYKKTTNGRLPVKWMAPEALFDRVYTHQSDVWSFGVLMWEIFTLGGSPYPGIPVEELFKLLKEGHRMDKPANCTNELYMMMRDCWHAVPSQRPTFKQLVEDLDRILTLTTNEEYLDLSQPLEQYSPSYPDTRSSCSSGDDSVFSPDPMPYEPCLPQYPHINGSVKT
Put plainly: Kinase profiling at 10 μM (Eurofins). Format: biochemical. The following applies: read-out: Inhibitory activity.

Experiment [4] addresses T4, p70S6K (Homo sapiens, UniProt P23443).
T4 construct: purchased Eurofins Pharma Discovery (KinaseProfiler); IC50 values by Reaction Biology Corp
The experiment can be described thus: Kinase profiling at 10 μM (Eurofins). In kind it is biochemical. Conditions: read-out: Inhibitory activity.

Experiment [5] has as its system A549 cells. The experiment can be described thus: Annexin V/PI flow cytometric analysis of apoptosis. Format: cell-based, human. The following applies: 10 µM, 48 h. How it is done:
(§1) Annexin V assays were performed according to the manufacturer’s protocol (BD Pharmingen, San Diego, CA, USA). Briefly, 10,000 cells were plated into 60-mm plates and treated with varying concentrations of AIU2001 for 48 h. The cells were harvested and incubated with 4 μL allophycocyanin (APC)-conjugated annexin V (20 μg/mL) and 4 μL PI (50 μg/mL) for 15 min. Fluorescence analyses were performed using flow cytometry (CyFlow Cube 6; Sysmexpartec, Goerlitz, Germany). Cells were classified as early apoptotic (annexin V-positive/PI-negative), late apoptotic/necrotic (annexin V-positive/PI-positive), necrotic/dead (annexin V-negative/PI-positive), and live (annexin V-negative/PI-negative). Flow cytometry data was analyzed using FlowJo software (TreeStar Inc., Ashland, OR, USA).
Background: Flow cytometry measures light scatter and fluorescence of single cells or particles in a stream.

Experiment [6] relates to H1299 cells. Put plainly: Annexin V/PI flow cytometric analysis of apoptosis. In kind it is cell-based, human. Conditions: 10 µM, 48 h. How it is done: as §1
Experiment [7] has as its target FLT3(D835Y) (Homo sapiens, UniProt P36888, D835Y). Put plainly: Kinase profiling at 10 μM (Eurofins). In kind it is biochemical. Details: purchased Eurofins Pharma Discovery (KinaseProfiler); IC50 values by Reaction Biology Corp. Conditions: read-out: Inhibitory activity.

T4 sequence (P23443 whole entry): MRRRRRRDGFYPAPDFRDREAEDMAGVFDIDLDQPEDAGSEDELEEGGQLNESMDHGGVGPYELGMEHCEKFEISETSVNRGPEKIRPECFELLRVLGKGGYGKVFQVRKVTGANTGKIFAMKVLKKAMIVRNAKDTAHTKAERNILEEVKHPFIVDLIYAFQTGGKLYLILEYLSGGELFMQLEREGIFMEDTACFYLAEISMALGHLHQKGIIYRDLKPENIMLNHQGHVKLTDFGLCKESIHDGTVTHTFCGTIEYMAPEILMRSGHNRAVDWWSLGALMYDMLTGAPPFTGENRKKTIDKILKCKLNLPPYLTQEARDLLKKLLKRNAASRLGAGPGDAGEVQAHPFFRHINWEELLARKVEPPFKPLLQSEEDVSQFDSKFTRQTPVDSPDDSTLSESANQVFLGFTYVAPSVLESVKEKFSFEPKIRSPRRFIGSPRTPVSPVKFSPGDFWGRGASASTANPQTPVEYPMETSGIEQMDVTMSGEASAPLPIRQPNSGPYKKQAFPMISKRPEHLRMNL
T2 sequence (P54760 16-987): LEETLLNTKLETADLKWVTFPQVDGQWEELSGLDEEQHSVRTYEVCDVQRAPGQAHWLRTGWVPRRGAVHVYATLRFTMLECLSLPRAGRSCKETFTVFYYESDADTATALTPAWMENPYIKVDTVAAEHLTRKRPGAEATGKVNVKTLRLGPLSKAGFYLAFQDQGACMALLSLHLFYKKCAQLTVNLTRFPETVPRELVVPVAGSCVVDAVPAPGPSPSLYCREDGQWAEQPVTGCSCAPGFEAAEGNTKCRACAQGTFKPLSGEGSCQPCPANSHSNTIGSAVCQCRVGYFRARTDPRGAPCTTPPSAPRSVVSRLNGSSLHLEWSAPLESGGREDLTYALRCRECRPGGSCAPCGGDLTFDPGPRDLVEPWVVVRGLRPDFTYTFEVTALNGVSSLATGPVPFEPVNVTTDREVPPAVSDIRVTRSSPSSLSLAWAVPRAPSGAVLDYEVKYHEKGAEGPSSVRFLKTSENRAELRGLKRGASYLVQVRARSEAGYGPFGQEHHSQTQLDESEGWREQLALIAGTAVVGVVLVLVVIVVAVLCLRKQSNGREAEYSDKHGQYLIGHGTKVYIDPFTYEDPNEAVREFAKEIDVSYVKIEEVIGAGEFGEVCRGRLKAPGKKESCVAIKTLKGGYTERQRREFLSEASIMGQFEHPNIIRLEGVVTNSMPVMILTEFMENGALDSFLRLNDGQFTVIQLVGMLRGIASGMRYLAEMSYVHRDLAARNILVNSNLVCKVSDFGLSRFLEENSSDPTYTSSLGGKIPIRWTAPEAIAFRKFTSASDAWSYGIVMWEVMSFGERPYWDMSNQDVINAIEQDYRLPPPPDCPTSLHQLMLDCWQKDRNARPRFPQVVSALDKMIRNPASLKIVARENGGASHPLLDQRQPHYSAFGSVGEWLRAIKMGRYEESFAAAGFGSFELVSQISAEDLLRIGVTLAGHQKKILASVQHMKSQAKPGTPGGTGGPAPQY
T1 sequence (P15056 whole entry): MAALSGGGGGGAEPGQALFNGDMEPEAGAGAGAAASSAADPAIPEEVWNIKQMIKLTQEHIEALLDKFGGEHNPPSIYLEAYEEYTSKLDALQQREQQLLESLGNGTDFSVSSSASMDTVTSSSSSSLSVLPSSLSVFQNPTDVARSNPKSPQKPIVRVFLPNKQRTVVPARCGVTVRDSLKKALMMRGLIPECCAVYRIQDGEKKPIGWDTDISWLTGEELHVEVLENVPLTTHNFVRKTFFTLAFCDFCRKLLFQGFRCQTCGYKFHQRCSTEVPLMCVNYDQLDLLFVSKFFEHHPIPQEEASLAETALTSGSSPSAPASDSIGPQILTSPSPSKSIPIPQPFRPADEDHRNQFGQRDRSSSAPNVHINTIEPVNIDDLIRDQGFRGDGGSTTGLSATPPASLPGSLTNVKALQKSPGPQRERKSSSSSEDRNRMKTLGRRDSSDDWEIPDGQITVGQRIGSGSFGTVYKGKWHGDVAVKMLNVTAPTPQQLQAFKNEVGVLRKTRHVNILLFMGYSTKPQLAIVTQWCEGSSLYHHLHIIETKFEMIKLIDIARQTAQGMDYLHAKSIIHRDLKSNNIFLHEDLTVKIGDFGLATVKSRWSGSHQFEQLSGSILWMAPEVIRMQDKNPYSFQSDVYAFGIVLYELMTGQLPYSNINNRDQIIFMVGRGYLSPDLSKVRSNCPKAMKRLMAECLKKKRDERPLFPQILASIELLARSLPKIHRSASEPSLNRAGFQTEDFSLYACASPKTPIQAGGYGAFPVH

In the case of `Brc1ccc(-c2cnc(Nc3cccc4ccccc34)o2)cc1` [AIU2001, 5-(4-bromophenyl)-N-(naphthalen-1-yl) oxazol-2-amine], the inhibition at 10 µM was 0% in experiment [1]; 10% in experiment [2]; 1% in experiment [3]; 8% in experiment [4]; no less than 75% in experiment [7]. The “Increase in early and late apoptotic cells” value in experiment [5] is given as 4.2 fold; in experiment [6], 6.7 fold.

Values taken from publication PMC6801739, “Antitumor Activity of a Novel Tyrosine Kinase Inhibitor AIU2001 Due to Abrogation of the DNA Damage Repair in Non-Small Cell Lung Cancer Cells” (International Journal of Molecular Sciences, 2019).
